Values of other authors, collected in patent publication US20070196518A1, “Composition and Method for Mitigating a Negative Effect of Alcohol Consumption” (priority 2005, published 2007).

Conditions: on average, in subjects who consumed alcohol

Cc1ncc(CO)c(CO)c1O [Vitamin B6, Pyridoxine]
decrease in the number of hangover symptoms: 50%
